Reference: patent publication US9718812B2, “Substituted thiazole or oxazole P2X7 receptor antagonists” (Axxam S.P.A., priority 2014, dated 2017)

Key:
P2X7 receptor (hP2X7) = P2X7 receptor (hP2X7) (Homo sapiens (Human), UniProt Q99572); assay: Screen Quest Fluo-8 No Wash Calcium Assay (Bz-ATP-induced Ca2+ influx, FLIPR TETRA); assay type: cell-based; conditions: HEK-293 cells stably transfected with P2X7 receptor, Fluo-8 calcium, Low Divalent Cation Assay Buffer
Description: Extracellular binding of Bz-ATP to P2X7 receptor opens the channel and allows Ca2+ influx into the cells. This Ca2+ entry was measured in HEK-293 cells stably transfected with P2X7 receptor using Screen Quest™ Fluo-8 No Wash Calcium Assay Kit (AAt Bioquest®, cat. 36316). Once inside the cell, the lipophilic blocking groups of Fluo-8 are cleaved by non-specific cell esterases, resulting in a negatively-charged fluorescent dye that stays inside cells. Its fluorescence increases upon binding to calcium. When HEK-293/P2X7 cells are stimulated with Bz-ATP, Ca2+ enters the cells and the fluorescence of Fluo-8 NW increases. The dye has an absorption spectrum compatible with excitation at 488 nm by argon laser sources and its emission wavelength is in the range of 515-575 nm.
HEK-293 cells stably transfected with P2X7 receptor were seeded overnight in growth medium at 10,000 to 20,000 cells/well in 384-well plate. 24 hours later, the medium was removed and the cells were pre-loaded at RT for 1 hour with 20 μL/w of Fluo-8 NW. Then 10 μL/w of test compounds and reference antagonist A438079 at 3×-concentration were injected with the […] and the kinetic response over a period of five minutes was monitored.

P2X7 receptor = P2X7 receptor (Homo sapiens (Human), UniProt Q99572); assay: YO-PRO-1 Uptake Assay (large pore form, Bz-ATP stimulated); assay type: cell-based; conditions: HEK-293 cells stably transfected with P2X7 receptor; Bz-ATP EC80 (30 μM); 5 μM YO-PRO-1
Chain of P2X7 receptor (Q99572 whole entry): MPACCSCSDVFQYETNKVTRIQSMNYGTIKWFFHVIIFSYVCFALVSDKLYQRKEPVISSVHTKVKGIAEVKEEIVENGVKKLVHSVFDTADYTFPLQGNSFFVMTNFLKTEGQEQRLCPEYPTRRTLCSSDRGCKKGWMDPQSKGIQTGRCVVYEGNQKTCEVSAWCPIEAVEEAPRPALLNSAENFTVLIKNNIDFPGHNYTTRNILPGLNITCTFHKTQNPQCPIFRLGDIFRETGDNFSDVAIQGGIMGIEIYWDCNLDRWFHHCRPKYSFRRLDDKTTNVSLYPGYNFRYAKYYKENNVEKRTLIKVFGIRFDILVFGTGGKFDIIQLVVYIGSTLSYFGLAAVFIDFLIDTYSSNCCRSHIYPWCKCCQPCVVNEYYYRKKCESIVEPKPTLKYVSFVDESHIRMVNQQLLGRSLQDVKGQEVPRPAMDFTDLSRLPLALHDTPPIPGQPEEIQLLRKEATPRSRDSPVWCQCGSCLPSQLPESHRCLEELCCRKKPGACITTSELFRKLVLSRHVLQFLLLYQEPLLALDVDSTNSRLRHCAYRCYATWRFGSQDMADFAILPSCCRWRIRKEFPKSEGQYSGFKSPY
From the text: YO-PRO®-1 is a fluorescent DNA-binding dye with a MW of 374 Da (Molecular Probes®, cat. Y3603). This method is based upon the presumed ability of YO-PRO®-1 to enter through the dilated or “large pore form” of P2X7 receptor and to bind to intracellular DNA whereupon it increases many fold its fluorescence intensity. The dye has an absorption spectrum compatible with excitation at 488 nm by argon laser sources and its emission wavelength is in the range of 515-575 nm. The aim of this assay was to validate the interaction of antagonists with P2X7 receptor using an alternative readout to Ca^2+-sensitive fluorescent dyes.
HEK-293 cells stably transfected with P2X7 receptor were seeded overnight in growth medium at 20,000 cells/well in 384-well plate. 24 hours later, the medium was removed, the cells were washed with Low Divalent Cation Assay Buffer (0.3 mM Ca2+ and 0 mM Mg2+) and then pre-loaded with 20 μL/w of 5 μM YO-PRO®-1 dye. […] fluorescence measurement immediately started. Then, 10 μL/w of test compounds and reference antagonist A438079 at 3×-concentration were injected with the […] and the kinetic response over a period of five minutes was monitored. A second injection of 10 μL/w of 3× Bz-ATP EC80 (30 μM) was performed with the […] and the signal of the emitted fluorescence was recorded for additional 60 minutes. All the experiment was carried out with a Low Divalent Cation Assay Buffer (0.3 mM Ca^2+ and 0 mM Mg^2+).
The effect of the test compounds was measured as percent inhibition vs the reference antagonist and IC50 values were calculated accordingly.

Chain of P2X7 receptor (hP2X7) (Q99572 whole entry): as above

IC50 (P2X7 receptor (hP2X7)) [nM] | IC50 (P2X7 receptor) [nM] | SMILES
55 | 44 | Cc1cccc(C)c1C(=O)NCC(c1scnc1C)N1CCC(F)(F)CC1 (stereo not shown) [Compound 32, N-[2-(4,4-difluoropiperidin-1-yl)-2-(4-methyl-1,3-thiazol-5-yl)ethyl]-2,6-dimethylbenzamide]
179 | 126 | O=C(NCC(c1cnc(C2CC2)s1)N1CCC(F)(F)CC1)c1cc(-c2ncc(F)cn2)ccc1Cl (stereo not shown) [Compound 87]
18 | 55 | Cc1cccc(C)c1C(=O)NCC(c1cnco1)N1CCC(F)(F)CC1 (stereo not shown) [Compound 46, N-[2-(4,4-difluoropiperidin-1-yl)-2-(1,3-oxazol-5-yl)ethyl]-2,6-dimethylbenzamide]
119 | 36 | O=C(NCC(c1cnc(CO)s1)N1CCC(F)(F)CC1)c1cc(-c2ncc(F)cn2)ccc1Cl (stereo not shown) [Compound 112]
31 | 129 | COc1cccc(C(=O)NCC(c2cncs2)N2CCC(F)(F)CC2)c1OC (stereo not shown) [Compound 21, N-[2-(4,4-difluoropiperidin-1-yl)-2-(1,3-thiazol-5-yl)ethyl]-2,3-dimethoxybenzamide]
119 | 44 | Cc1cccc(C)c1C(=O)NCC(c1cncs1)N1CCC(Oc2ccccc2)CC1 (stereo not shown) [Compound 26, 2,6-dimethyl-N-[2-(4-phenoxypiperidin-1-yl)-2-(1,3-thiazol-5-yl)ethyl]benzamide]
38 | 16 | O=C(NCC(c1cnc(C(F)(F)F)s1)N1CCC(F)(F)CC1)c1c(F)cccc1Cl (stereo not shown) [Compound 81, 2-chloro-N-[2-(4,4-difluoropiperidin-1-yl)-2-[2-(trifluoromethyl)-1,3-thiazol-5-yl]ethyl]-6-fluorobenzamide]
30 | 18 | Cc1ncc(C(CNC(=O)c2c(C)cccc2C)N2CCC(F)(F)CC2)s1 (stereo not shown) [Compound 40, N-[2-(4,4-difluoropiperidin-1-yl)-2-(2-methyl-1,3-thiazol-5-yl)ethyl]-2,6-dimethylbenzamide]
81 | 220 | Cc1cccc(C)c1C(=O)NCC(c1cncs1)N1CCOCC1 (stereo not shown) [Compound 11, 2,6-dimethyl-N-[2-(morpholin-4-yl)-2-(1,3-thiazol-5-yl)ethyl]benzamide]
853 | 996 | Cc1ncc(C(CNC(=O)c2c(C)cccc2Cl)N2CCc3ccccc3C2)s1 (stereo not shown) [Compound 41, 2-chloro-6-methyl-N-[2-(2-methyl-1,3-thiazol-5-yl)-2-(1,2,3,4-tetrahydroisoquinolin-2-yl)ethyl]benzamide]
1120 | 2970 | Cc1nc(C)c(C(CNC(=O)c2cc(-c3ncc(F)cn3)ccc2Cl)N2CCC(F)(F)CC2)o1 (stereo not shown) [Compound 58, 2-chloro-N-[2-(4,4-difluoropiperidin-1-yl)-2-(2,4-dimethyl-1,3-oxazol-5-yl)ethyl]-5-(5-fluoropyrimidin-2-yl)benzamide]
116 | 82 | Cc1ncsc1C(CNC(=O)c1cc(-c2ncc(F)cn2)ccc1Cl)N1CCOC2(CCC2)C1 (stereo not shown) [Compound 93, 2-chloro-5-(5-fluoropyrimidin-2-yl)-N-[2-(4-methyl-1,3-thiazol-5-yl)-2-{5-oxa-8-azaspiro[3.5]nonan-8-yl}ethyl]benzamide]
78 | 50 | CCCc1ncc(C(CNC(=O)c2c(F)cccc2Cl)N2CCC(F)(F)CC2)s1 (stereo not shown) [Compound 109, 2-chloro-N-[2-(4,4-difluoropiperidin-1-yl)-2-(2-propyl-1,3-thiazol-5-yl)ethyl]-6-fluorobenzamide]
119 | 46 | O=C(NCC(c1cnc(C2CCC2)s1)N1CCC(F)(F)CC1)c1c(F)cccc1Cl (stereo not shown) [Compound 110, 2-chloro-N-[2-(2-cyclobutyl-1,3-thiazol-5-yl)-2-(4,4-difluoropiperidin-1-yl)ethyl]-6-fluorobenzamide]
118 | 40 | Cc1cccc(C)c1C(=O)NCC(c1cncs1)N1CCC(OCc2ccccc2)CC1 (stereo not shown) [Compound 23, N-{2-[4-(benzyloxy)piperidin-1-yl]-2-(1,3-thiazol-5-yl)ethyl}-2,6-dimethylbenzamide]
32 | 79 | Cc1ncsc1C(CNC(=O)c1cccc2ncccc12)N1CCOC(c2ccc(F)cc2F)C1 (stereo not shown) [Compound 99, N-{2-[2-(2,4-difluorophenyl)morpholin-4-yl]-2-(4-methyl-1,3-thiazol-5-yl)ethyl}quinoline-5-carboxamide]
631 | 158 | CCCc1ncc(C(CNC(=O)c2cc(-c3ncc(F)cn3)ccc2Cl)N2CCC(F)(F)CC2)s1 (stereo not shown) [Compound 107, 2-chloro-N-[2-(4,4-difluoropiperidin-1-yl)-2-(2-propyl-1,3-thiazol-5-yl)ethyl]-5-(5-fluoropyrimidin-2-yl)benzamide]
32 | 98 | Nc1ccc(Cl)c(C(=O)NCC(c2cncs2)N2CCC(F)(F)CC2)c1 (stereo not shown) [Compound 16, 5-amino-2-chloro-N-[2-(4,4-difluoropiperidin-1-yl)-2-(1,3-thiazol-5-yl)ethyl]benzamide]
87 | 49 | Cc1ncc(C(CNC(=O)c2c(F)cccc2Cl)N2CCC(F)(F)CC2)s1 (stereo not shown) [Compound 38, 2-chloro-N-[2-(4,4-difluoropiperidin-1-yl)-2-(2-methyl-1,3-thiazol-5-yl)ethyl]-6-fluorobenzamide]
114 | 279 | Cc1ncoc1C(CNC(=O)c1cc(-c2ncc(F)cn2)ccc1Cl)N1CCOCC1 (stereo not shown) [Compound 54, 2-chloro-5-(5-fluoropyrimidin-2-yl)-N-[2-(4-methyl-1,3-oxazol-5-yl)-2-(morpholin-4-yl)ethyl]benzamide]
104 | 197 | Cc1cccc(Cl)c1C(=O)NCC(c1cncs1)N1CCc2ccccc2C1 (stereo not shown) [Compound 19, 2-chloro-6-methyl-N-[2-(1,2,3,4-tetrahydroisoquinolin-2-yl)-2-(1,3-thiazol-5-yl)ethyl]benzamide]
111 | 44 | Cc1cccc(Cl)c1C(=O)NCC(c1cncs1)N1CCC(OCc2ccccc2)CC1 (stereo not shown) [Compound 24, N-{2-[4-(benzyloxy)piperidin-1-yl]-2-(1,3-thiazol-5-yl)ethyl}-2-chloro-6-methylbenzamide]
143 | 846 | Nc1ccc(Cl)c(C(=O)NCC(c2cncs2)N2CCOCC2)c1 (stereo not shown) [Compound 12, 5-amino-2-chloro-N-[2-(morpholin-4-yl)-2-(1,3-thiazol-5-yl)ethyl]benzamide-]
141 | 24 | Cc1ncc(C(CNC(=O)c2cc(-c3ncc(F)cn3)ccc2Cl)N2CCC(F)(F)CC2)s1 (single isomer, unassigned; (-)) [Compound 128, (−)-2-chloro-N-[2-(4,4-difluoro-piperidin-1-yl)-2-(2-methylthiazol-5-yl)ethyl]-5-(5-fluoropyrimidin-2-yl)benzamide]
60 | 41 | O=C(NCC(c1cnc(C2CCC(F)(F)CC2)s1)N1CCOCC1)c1c(F)cccc1Cl (stereo not shown) [Compound 116, 2-chloro-N-{2-[2-(4,4-difluorocyclohexyl)-1,3-thiazol-5-yl]-2-(morpholin-4-yl)ethyl}-6-fluorobenzamide]
54 | 82 | O=C(NCC(c1scnc1C(F)F)N1CCC(F)(F)CC1)c1c(F)cccc1Cl (stereo not shown) [Compound 95, 2-chloro-N-{2-[4-(difluoromethyl)-1,3-thiazol-5-yl]-2-(4,4-difluoropiperidin-1-yl)ethyl}-6-fluorobenzamide]
106 | 90 | Cc1ncsc1C(CNC(=O)c1cc(-c2ncc(F)cn2)ccc1Cl)N1CCOCC1 (stereo not shown) [Compound 37, 2-chloro-5-(5-fluoropyrimidin-2-yl)-N-[2-(4-methyl-1,3-thiazol-5-yl)-2-(morpholin-4-yl)ethyl]benzamide]
– | 225 | O=C(NCC(c1cnco1)N1CCC(F)(F)CC1)c1c(F)cccc1Cl (stereo not shown) [Compound 45, 2-chloro-N-[2-(4,4-difluoropiperidin-1-yl)-2-(1,3-oxazol-5-yl)ethyl]-6-fluorobenzamide]
